Calls of active or inactive are those of the source. The calls are words filed in the database; no cut-off is given here.
Legend:
MDA-MB-231 [1] = assay: Antiproliferative activity against human MDA-MB-231 cells assessed as cell viability rate at 5 uM incubated for 72 hrs by MTT assay relative to control; format: functional
A549 [2] = assay: Antiproliferative activity against human A549 cells assessed as cell viability rate at 5 uM incubated for 72 hrs by MTT assay relative to control; format: functional
HepG2 = assay: Antiproliferative activity against human HepG2 cells assessed as cell viability rate at 5 uM incubated for 72 hrs by MTT assay relative to control; format: functional
MDA-MB-231 [3] = assay: Antiproliferative activity against human MDA-MB-231 cells assessed as inhibition of cell proliferation incubated for 72 hrs by MTT assay; format: functional, cell-based; details: MDA-MB-231, 72 h
A549 [4] = assay: Induction of apoptosis in human A549 cells assessed as dead cells at 20 uM incubated for 24 hrs by annexin V-FITC/PI staining based flow cytometry analysis (reference value: 0.75%); format: functional
A549 [5] = assay: Induction of apoptosis in human A549 cells assessed as late apoptotic cells at 20 uM incubated for 24 hrs by annexin V-FITC/PI staining based flow cytometry analysis (reference value: 5.28%); format: functional
A549 [6] = assay: Induction of apoptosis in human A549 cells assessed as early apoptotic cells at 20 uM incubated for 24 hrs by annexin V-FITC/PI staining based flow cytometry analysis (reference value: 0.78%); format: functional
A549 [7] = assay: Induction of apoptosis in human A549 cells assessed as live cells at 20 uM incubated for 24 hrs by annexin V-FITC/PI staining based flow cytometry analysis (reference value: 93.2%); format: functional
MDA-MB-231 [8] = assay: Induction of apoptosis in human MDA-MB-231 cells assessed as live cells at 20 uM incubated for 24 hrs by annexin V-FITC/PI staining based flow cytometry analysis (reference value: 91.3%); format: functional
MDA-MB-231 [9] = assay: Induction of apoptosis in human MDA-MB-231 cells assessed as early apoptotic cells at 20 uM incubated for 24 hrs by annexin V-FITC/PI staining based flow cytometry analysis (reference value: 2.03%); format: functional
MDA-MB-231 [10] = assay: Induction of apoptosis in human MDA-MB-231 cells assessed as late apoptotic cells at 20 uM incubated for 24 hrs by annexin V-FITC/PI staining based flow cytometry analysis (reference value: 5.93%); format: functional
MDA-MB-231 [11] = assay: Induction of apoptosis in human MDA-MB-231 cells assessed as dead cells at 20 uM incubated for 24 hrs by annexin V-FITC/PI staining based flow cytometry analysis (reference value: 0.69%); format: functional
[12] = Drug absorption in KM mouse at 25 mg/kg, po measured after 0.5 to 2 hrs; format: ADME, organism-based; details: in vivo, time 0.5-2 hrs
[13] = Drug absorption in KM mouse at 25 mg/kg, ip measured after 0.5 to 2 hrs; format: ADME, organism-based; details: in vivo, time 0.5-2 hrs
[14] = AUC (0 to infinity) in Sprague-Dawley rat at 25 mg/kg, ip measured for 48 hrs by LC-MS/MS analysis; format: ADME, organism-based; set-up: time 48 hrs, dose 25 mg/kg, route ip; details: in vivo
[15] = Cmax in Sprague-Dawley rat at 25 mg/kg, ip measured for 48 hrs by LC-MS/MS analysis; format: ADME, organism-based; set-up: time 48 hrs, dose 25 mg/kg, route ip; details: in vivo
[16] = Tmax in Sprague-Dawley rat at 25 mg/kg, ip measured for 48 hrs by LC-MS/MS analysis; format: ADME, organism-based; details: in vivo
[17] = Elimination half life in Sprague-Dawley rat at 25 mg/kg, ip measured for 48 hrs by LC-MS/MS analysis; format: ADME, organism-based; details: in vivo, read-out: beta t1/2 (converted)
[18] = Apparent clearance during terminal phase in Sprague-Dawley rat at 25 mg/kg, ip measured for 48 hrs by LC-MS/MS analysis; format: ADME, organism-based; details: in vivo, read-out: CLz/F (converted)
[19] = Apparent volume of distribution during terminal phase in Sprague-Dawley rat at 25 mg/kg, ip measured for 48 hrs by LC-MS/MS analysis; format: ADME, organism-based; details: in vivo, read-out: Vz/F
[20] = target: T1, Retinoic acid receptor RXR-alpha (Homo sapiens) (UniProt P19793); assay: Antagonist activity at RXRalpha (unknown origin) transfected in human HeLa cells assessed as inhibition of CD3254- induced receptor transactivation by measuring remaining luciferase activity at 1 uM incubated for 24 hrs by dual luciferase reporter assay relative to control; format: cell-based; details: filed as antagonist
T1 sequence (whole entry): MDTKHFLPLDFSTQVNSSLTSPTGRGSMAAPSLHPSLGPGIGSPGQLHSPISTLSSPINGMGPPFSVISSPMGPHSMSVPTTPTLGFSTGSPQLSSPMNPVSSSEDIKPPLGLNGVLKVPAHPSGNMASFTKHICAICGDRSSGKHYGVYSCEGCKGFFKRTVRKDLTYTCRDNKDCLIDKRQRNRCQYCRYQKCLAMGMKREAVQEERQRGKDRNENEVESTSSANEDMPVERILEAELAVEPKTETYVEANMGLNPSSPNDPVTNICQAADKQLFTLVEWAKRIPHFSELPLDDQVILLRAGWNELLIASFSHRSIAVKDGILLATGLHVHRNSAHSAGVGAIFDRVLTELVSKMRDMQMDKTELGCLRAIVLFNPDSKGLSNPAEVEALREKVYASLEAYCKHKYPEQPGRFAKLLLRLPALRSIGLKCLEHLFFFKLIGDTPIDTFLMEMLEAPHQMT

[21] = target: T1, Retinoic acid receptor RXR-alpha (Homo sapiens); assay: Antagonist activity at RXRalpha (unknown origin) transfected in human HeLa cells assessed as inhibition of CD3254- induced receptor transactivation by measuring remaining luciferase activity at 1 uM incubated for 24 hrs by dual luciferase reporter assay; format: cell-based; details: filed as antagonist

IC50 (MDA-MB-231 [3]) [nM] | inhibition [21] | SMILES | Activity (MDA-MB-231 [1]) [%] | Activity (A549 [2]) [%] | Activity (HepG2) [%] | other results
 |  | COc1cccc(CC(=O)Nc2ccc(-c3ccnc(N(C)CCO)c3)cn2)c1 | 96.96 | 93.45 | 86.14 | 
 |  | Cc1cccc(/C=C/C(=O)Nc2ccc(-c3ccnc(N4CCC(CO)CC4)c3)cn2)c1 | 38.51 | 41 | 38.09 | 
3500 |  | O=C(Cc1cccc(F)c1)Nc1ccc(-c2ccnc(N3CCC(CO)CC3)c2)cn1 | 36.36 | 58.17 | 65.95 | Activity [20]: < 50%
 |  | CN1CCN(c2cc(-c3ccc(NC(=O)Cc4cccc(F)c4)nc3)ccn2)CC1 | 87.66 | 113.37 | 84.3 | 
 | Active | CC1CCN(c2cc(-c3ccnc(NC(=O)Cc4cccc(F)c4)c3)ccn2)CC1 | 91.09 | 103.8 | 93.8 | 
3190 | Active | COc1cccc(CC(=O)Nc2ccc(-c3ccnc(N4CCC(C)CC4)c3)cn2)c1 | 47.74 | 80.24 | 55.19 | 
2610 | Active | Cc1cccc(/C=C/C(=O)Nc2cc(-c3ccnc(N4CCC(CO)CC4)c3)ccn2)c1 | 34.47 | 53.6 | 27.5 | 
 | Active | O=C(Cc1cccc(F)c1)Nc1cc(-c2ccnc(N3CCC(CO)CC3)c2)ccn1 | 82.84 | 98.62 | 88.95 | 
 | Active | Cc1ccc(CC(=O)Nc2ccc(-c3ccnc(N4CCN(C)CC4)c3)cn2)cc1 | 85.44 | 103.32 | 98.32 | 
 | Active | Cc1ccc(CC(=O)Nc2ccc(-c3ccnc(N4CCC(CO)CC4)c3)cn2)cc1 | 54.12 | 72.28 | 51.27 | 
 |  | Cc1cccc(CC(=O)Nc2ccc(-c3ccnc(N4CCN(C)CC4)c3)cn2)c1 | 112.17 | 126.23 | 86.83 | Activity [20]: < 50%
2020 |  | Cc1cccc(CC(=O)Nc2ccc(-c3ccnc(N4CCC(CO)CC4)c3)cn2)c1 | 32.19 | 63.99 | 29.6 | Activity [20]: < 50%
 |  | COc1cccc(CC(=O)Nc2ccc(-c3ccnc(N4CCN(C)CC4)c3)cn2)c1 | 99.26 | 103.91 | 85.3 | 
1460 | Active | CC1CCN(c2cc(-c3ccc(NC(=O)Cc4cccc(F)c4)nc3)ccn2)CC1 | 44.58 | 64.69 | 59.64 | 
 |  | Cc1cccc(CC(=O)Nc2ccc(-c3ccnc(N(C)CCO)c3)cn2)c1 | 51.81 | 93.2 | 89.85 | 
1480 |  | Cc1cccc(CC(=O)Nc2ccc(-c3ccnc(N4CCC(C)CC4)c3)cn2)c1 | 44.06 | 75.58 | 42.4 | Activity [20]: < 50%
 | Active | Cc1ccc(CC(=O)Nc2ccc(-c3ccnc(N4CCC(C)CC4)c3)cn2)cc1 | 76.9 | 91.24 | 88.24 | 
 |  | O=C(/C=C/c1cccc(F)c1)Nc1ccc(-c2ccnc(N3CCC(CO)CC3)c2)cn1 | 51.3 | 42.31 | 31.25 | 
 | Active | COc1cccc(CC(=O)Nc2cc(-c3ccnc(N4CCC(CO)CC4)c3)ccn2)c1 | 72.35 | 94.17 | 92.25 | 
 | Active | Cc1cccc(CC(=O)Nc2cc(-c3ccnc(N4CCC(CO)CC4)c3)ccn2)c1 | 46.82 | 73.92 | 60.73 | 
 | Active | Cc1cccc(CC(=O)Nc2cc(-c3ccnc(N4CCC(C)CC4)c3)ccn2)c1 | 93.87 | 108.84 | 106.32 | 
7360 |  | COc1cccc(CC(=O)Nc2ccc(-c3ccnc(N4CCC(CO)CC4)c3)cn2)c1 | 34.49 | 77.14 | 27.89 | Activity [20]: < 50%
 |  | CN(CCO)c1cc(-c2ccc(NC(=O)Cc3cccc(F)c3)nc2)ccn1 | 101.43 | 92.91 | 91.54 | 
 |  | Cc1ccc(CC(=O)Nc2ccc(-c3ccnc(N(C)CCO)c3)cn2)cc1 | 96.17 | 100.97 | 87.52 | 
 | Active | COc1cccc(CC(=O)Nc2cc(-c3ccnc(N4CCC(C)CC4)c3)ccn2)c1 | 83.56 | 114.18 | 110.22 | 
44 | Active | O=C(/C=C/c1cccc(F)c1)Nc1cc(-c2ccnc(N3CCC(CO)CC3)c2)ccn1 | 31.06 | 55.98 | 46.35 | 
879 | Active | O=C(CCc1ccccc1)Nc1cc(-c2ccnc(N3CCC(CO)CC3)c2)ccn1 | 25.7 | 62.19 | 37.04 | 
 |  | O=C(/C=C/c1ccccc1)Nc1ccc(-c2ccnc(N3CCC(CO)CC3)c2)cn1 | 40.55 | 52.67 | 31.76 | 

SMILES | IC50 (MDA-MB-231 [3]) [nM] | inhibition [21] | Activity (MDA-MB-231 [1]) [%] | Activity (A549 [2]) [%] | Activity (HepG2) [%] | other results
COc1ccc(CC(=O)N/N=C/c2c(O)ccc3ccccc23)cc1 | 6880 |  | 51.93 | 82.65 | 48.65 | Activity (A549 [4]): 1.15%; Activity (A549 [5]): 32.7%; Activity (A549 [6]): 26.1%; Activity (A549 [7]): 40.1%; Activity (MDA-MB-231 [8]): 62.5%; Activity (MDA-MB-231 [9]): 23.5%; Activity (MDA-MB-231 [10]): 12.7%; Activity (MDA-MB-231 [11]): 1.22%; Drug absorption [12]: Not Active; Drug absorption [13]: Active; AUC(0-inf) [14]: 7040 ng·h/mL; Cmax [15]: 1060 ng/mL; Tmax [16]: 2.67 h; half-life [17]: 2.13 h; CL/F [18]: 61.2 mL/min/kg; Vd/F [19]: 11.3 L/kg

Reference: ChEMBL document CHEMBL5321216, “Discovery of bipyridine amide derivatives targeting pRXRα-PLK1 interaction for anticancer therapy” (Eur J Med Chem, 2023)
